Experimental data from US20240166664A1, “TRIHETEROCYCLIC COMPOUND, PREPARATION METHOD THEREFOR, AND APPLICATION THEREOF” (SHANGHAI APEIRON THERAPEUTICS COMPANY LIMITED, priority 2021, published 2024).
pIC50: −log10 of the molar value. Where two headings read alike, the source gives them in different places.

Legend:
PARP7 = biological target: T1, PARP7 (Homo sapiens, UniProt Q7Z3E1); assay: Test of inhibitory activity against PARP7 enzyme (PARP7 FLAG-tag, Probe A, time-resolved fluorescence); format: biochemical; details: PARP7 12 nM, Probe A 2 nM, 1 hr room temperature
T1 construct: purchased BPS 80527
T1 sequence (Q7Z3E1 1-657): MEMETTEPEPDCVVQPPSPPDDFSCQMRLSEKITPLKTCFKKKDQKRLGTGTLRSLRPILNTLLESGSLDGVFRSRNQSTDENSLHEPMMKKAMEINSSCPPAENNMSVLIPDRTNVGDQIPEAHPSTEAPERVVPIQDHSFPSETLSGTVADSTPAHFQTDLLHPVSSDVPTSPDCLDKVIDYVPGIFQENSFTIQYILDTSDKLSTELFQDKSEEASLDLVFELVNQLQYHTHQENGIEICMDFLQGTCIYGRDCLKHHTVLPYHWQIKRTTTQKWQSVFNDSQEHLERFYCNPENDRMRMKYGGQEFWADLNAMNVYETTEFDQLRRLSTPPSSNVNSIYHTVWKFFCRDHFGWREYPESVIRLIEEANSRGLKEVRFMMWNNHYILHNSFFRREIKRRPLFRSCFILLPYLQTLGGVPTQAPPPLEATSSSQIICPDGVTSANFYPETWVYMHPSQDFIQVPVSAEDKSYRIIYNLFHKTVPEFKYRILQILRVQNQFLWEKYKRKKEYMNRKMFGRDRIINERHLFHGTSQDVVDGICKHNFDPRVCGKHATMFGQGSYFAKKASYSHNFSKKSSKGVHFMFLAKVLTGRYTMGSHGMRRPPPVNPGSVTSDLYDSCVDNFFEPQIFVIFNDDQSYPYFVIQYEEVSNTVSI

NCI-H1373 cells = assay: Cell proliferation inhibition assay (CTG method); format: cell-based, human; details: read-out: IC50 (nM) for NCI-H1373 cell viability
[1] = Homo sapiens, NCI-H1373, 144 h, NCI-H1373 cells, 6 days incubation, CTG method
[2] = NCI-H1373 cells, 6 days incubation, CTG method

Row | pIC50 (PARP7) | IC50 (NCI-H1373 cells; [1]) | IC50 (NCI-H1373 cells; [2]) | Compound | IC50 (NCI-H1373 cells; Homo sapiens, NCI-H1373, 144 h)
1 | > 8.00 | < 100 nM | – | C[C@@H](COCCC(=O)N1CCN2c3ncc(C(F)(F)F)cc3CC[C@H]2C1)Nc1cn[nH]c(=O)c1C(F)(F)F (single isomer, unassigned) [Compound 45] | –
2 | > 8.00 | 100 to 500 nM | – | C[C@@H](COCCC(=O)N1CCN2c3ncc(C(F)(F)F)cc3CC[C@@H]2C1)Nc1cn[nH]c(=O)c1C(F)(F)F (single isomer, unassigned) [Compound 46] | –
3 | > 8.00 | < 100 nM | – | CC(COCC(O)C(=O)N1CCN2c3ncc(C(F)(F)F)cc3COCC2C1)Nc1cn[nH]c(=O)c1C(F)(F)F (single isomer, unassigned) [Compound 55] | –
4 | > 8.00 | – | 100 to 500 nM | CC(COCC(O)C(=O)N1CCN2c3ncc(C(F)(F)F)cc3COCC2C1)Nc1cn[nH]c(=O)c1C(F)(F)F (single isomer, unassigned) [Compound 56] | –
5 | > 8.00 | 500 to 5000 nM | – | C[C@@H](COCCC(=O)N1CCN2c3ncc(C(F)(F)F)cc3C(F)(F)C[C@H]2C1)Nc1cn[nH]c(=O)c1C(F)(F)F (single isomer, unassigned) [Compound 63] | –
6 | > 8.00 | 500 to 5000 nM | – | C[C@@H](COCCC(=O)N1CCN2c3ncc(C(F)(F)F)cc3C(F)(F)C[C@@H]2C1)Nc1cn[nH]c(=O)c1C(F)(F)F (single isomer, unassigned) [Compound 64] | –
7 | > 8.00 | > 5000 nM | – | C[C@@H](COCCC(=O)N1CCN2c3ncc(C(F)(F)F)cc3NC(=O)CC2C1)Nc1cn[nH]c(=O)c1C(F)(F)F (single isomer, unassigned) [Compound 84] | –
8 | > 8.00 | 500 to 5000 nM | – | C[C@H](COCCC(=O)N1CCN2c3ncc(C(F)(F)F)cc3NCC[C@H]2C1)Nc1cn[nH]c(=O)c1C(F)(F)F (stereo in doubt) [Compound 36, 5-(((R)-1-(3-oxo-3-((S)-3-(trifluoromethyl)-6,7,7a, 8,10,11-hexahydropyrazino[1,2-d]pyrido[3,2-b][1,4]diazepine-9(5H)-yl)propoxy)prop-2-yl)amino)-4-(trifluoromethyl)pyridazin-3(2H)-one] | –
9 | > 8.00 | < 100 nM | – | C[C@@H](COCCC(=O)N1CCN2c3ncc(C(F)(F)F)cc3OC[C@H]2C1)Nc1cn[nH]c(=O)c1C(F)(F)F [Compound 1, 5-(((S)-1-(3-oxo-3-((R)-3-(trifluoromethyl)-6a, 7,9,10-tetrahydropyrazino[1,2-d]pyrido[3,2-b][1,4]oxazin-8(6H)-yl)propoxy)prop-2-yl)amino)-4-(trifluoromethyl)pyridazin-3(2H)-one] | –
10 | > 8.00 | < 100 nM | – | C[C@@H](COCCC(=O)N1CCN2c3ncc(C(F)(F)F)cc3OC[C@@H]2C1)Nc1cn[nH]c(=O)c1C(F)(F)F [Compound 2, 5-(((S)-1-(3-oxo-3-((S)-3-(trifluoromethyl)-6a, 7,9,10-tetrahydropyrazino[1,2-d]pyrido[3,2-b][1,4]oxazin-8(6H)-yl)propoxy)prop-2-yl)amino)-4-(trifluoromethyl)pyridazin-3(2H)-one] | –
11 | > 8.00 | > 5000 nM | – | C[C@@H](COCCC(=O)N1CCN2c3ncc(C(F)(F)F)cc3C(=O)OC[C@H]2C1)Nc1cn[nH]c(=O)c1C(F)(F)F [Compound 3, (R)-9-(3-((S)-2-((6-oxo-5-(trifluoromethyl)-1,6-dihydropyridazin-4-yl)amino)propoxy)propionyl)-3-(trifluoromethyl)-7,7a, 8,9,10,11-hexahydro-5H-pyrazino[2,1-c]pyrido[2,3-e][1,4]oxazin-5-one] | –
12 | > 8.00 | > 5000 nM | – | C[C@@H](COCCC(=O)N1CCN2c3ncc(C(F)(F)F)cc3C(=O)OC[C@@H]2C1)Nc1cn[nH]c(=O)c1C(F)(F)F [Compound 4, (S)-9-(3-((S)-2-((6-oxo-5-(trifluoromethyl)-1,6-dihydropyridazin-4-yl)amino)propoxy)propionyl)-3-(trifluoromethyl)-7,7a, 8,9,10,11-hexahydro-5H-pyrazino[2,1-c]pyrido[2,3-e][1,4]oxazin-5-one] | –
13 | – | – | – | C[C@@H](COCCC(=O)N1CCN2c3ncc(C(F)(F)F)cc3NC(=O)[C@H]2C1)Nc1cn[nH]c(=O)c1C(F)(F)F [Compound 7, (R)-8-(3-((S)-2-((6-oxo-5-(trifluoromethyl)-1,6-dihydropyridazin-4-yl)amino)propoxy)propionyl)-3-(trifluoromethyl)-7,8,9,10-tetrahydro-5H-pyrazino[1,2-a]pyrido[3,2-e]pyrazin-6(6aH)-one] | 500 to 5000 nM
14 | – | – | – | C[C@@H](COCCC(=O)N1CCN2c3ncc(C(F)(F)F)cc3NC(=O)[C@@H]2C1)Nc1cn[nH]c(=O)c1C(F)(F)F [Compound 8, (S)-8-(3-((S)-2-((6-oxo-5-(trifluoromethyl)-1,6-dihydropyridazin-4-yl)amino)propoxy)propionyl)-3-(trifluoromethyl)-7,8,9,10-tetrahydro-5H-pyrazino[1,2-a]pyrido[3,2-e]pyrazin-6(6aH)-one] | 100 to 500 nM
15 | – | 100 to 500 nM | – | C[C@@H]1CN2c3ncc(C(F)(F)F)cc3OC[C@H]2CN1C(=O)CCOC[C@H](C)Nc1cn[nH]c(=O)c1C(F)(F)F [Compound 24, 5-(((S)-1-(3-((6aR,9R)-9-methyl-3-(trifluoromethyl)-6a, 7,9,10-tetrahydropyrazino[1,2-d]pyrido[3,2-b][1,4]oxazin-8(6H)-yl)-3-oxypropoxy)prop-2-yl)amino)-4-(trifluoromethyl)pyridazin-3(2H)-one] | –
16 | – | – | – | C[C@@H](COCCC(=O)N1CCN2c3ncc(C(F)(F)F)cc3N(C)C(=O)[C@@H]2C1)Nc1cn[nH]c(=O)c1C(F)(F)F [Compound 33, (S)-5-methyl-8-(3-((S)-2-((6-oxo-5-(trifluoromethyl)-1,6-dihydropyridazin-4-yl)amino)propoxy)propionyl)-3-(trifluoromethyl)-7,8,9,10-tetrahydro-5H-pyrazino[1,2-a]pyrido[3,2-e]pyrazin-6(6aH)-one] | < 100 nM
17 | – | – | – | [2H]C([2H])([2H])N1C(=O)[C@@H]2CN(C(=O)CCOC[C@H](C)Nc3cn[nH]c(=O)c3C(F)(F)F)CCN2c2ncc(C(F)(F)F)cc21 [Compound 39, (s)-5-(methyl-D3)-8-(3-((S)-2-((6-oxo-5-(trifluoromethyl)-1,6-dihydropyridazin-4-yl)amino)propoxy)propionyl)-3-(trifluoromethyl)-7,8,9,10-tetrahydro-5H-pyrazino[1,2-a]pyrido[3,2-e]pyrazino-6(6aH)-one] | < 100 nM
18 | – | > 5000 nM | – | C[C@@H](COCCC(=O)N1CCN2c3ccc(C(F)(F)F)cc3N(C)C(=O)[C@@H]2C1)Nc1cn[nH]c(=O)c1C(F)(F)F [Compound 49] | –
19 | – | – | – | C[C@@H](COCCC(=O)N1CCN2c3ncc(C(F)(F)F)cc3N(C)C(=O)[C@H]2C1)Nc1cn[nH]c(=O)c1C(F)(F)F [Compound 54, (R)-5-methyl-8-(3-((S)-2-((6-oxo-5-(trifluoromethyl)-1,6-dihydropyridazin-4-yl)amino)propoxy)propionyl)-3-(trifluoromethyl)-7,8,9, 10-tetrahydro-5H-pyrazino[1,2-a]pyrido[3,2-e]pyrazin-6(6aH)-one] | < 100 nM
20 | – | 500 to 5000 nM | – | CC(COCCC(=O)N1CCN2c3ncc(C(F)(F)F)cc3CN(C)C(=O)C2C1)Nc1cn[nH]c(=O)c1C(F)(F)F [Compound 57, (R)-6-methyl-9-(3-((S)-2-((6-oxo-5-(trifluoromethyl)-1,6-dihydropyridazin-4-yl)amino)propoxy)propionyl)-3-(trifluoromethyl)-5,6,8,9, 10, 11-hexahydropyrazino[1,2-a]pyrido[3,2-f][1, 4]diazepan-7(7aH)-one] | –
21 | – | 100 to 500 nM | – | C[C@@H](COCCC(=O)N1CCN2c3ncc(C(F)(F)F)c(C(F)F)c3OCC[C@H]2C1)Nc1cn[nH]c(=O)c1C(F)(F)F [Compound 62, 5-(((S)-1-(3-((S)-4-(difluoromethyl)-3-(trifluoromethyl)-6,7,7a, 8, 10, 11-hexahydro-9H-pyrazino[1,2-d]pyrido[3,2-b][1, 4]oxazepane-9-yl)-3-oxypropoxy)prop-2-yl)amino)-4-(trifluoromethyl)pyridazin-3(2H)-one] | –
22 | – | < 100 nM | – | CC(COCC(O)C(=O)N1CCN2c3ncc(C(F)(F)F)cc3CCC2C1)Nc1cn[nH]c(=O)c1C(F)(F)F (stereo not shown) [Compound 67] | –
23 | – | – | < 100 nM | CC(COCC(O)C(=O)N1CCN2c3ncc(C(F)(F)F)cc3CCC2C1)Nc1cn[nH]c(=O)c1C(F)(F)F (stereo not shown) [Compound 68] | –
24 | – | < 100 nM | – | C[C@@H](COCCC(=O)N1CCN2c3ncc(C(F)(F)F)cc3COC[C@H]2C1)Oc1cn[nH]c(=O)c1C(F)(F)F [Compound 69, 5-(((S)-1-(3-oxo-3-((R)-3-(trifluoromethyl)-7a, 8, 10, 11-tetrahydro-5H-pyrazino[2,1-c]pyrido[2,3-e][1, 4]oxazepane-9(7H)-yl)propoxy)prop-2-yl)oxy)-4-(trifluoromethyl)pyridazin-3(2H)-one] | –
25 | > 8.00 | – | – | C[C@@H](COCCC(=O)N1CCN2c3ncc(C(F)(F)F)cc3NC(C)(C)[C@H]2C1)Nc1cn[nH]c(=O)c1C(F)(F)F [Compound 76] | –
